Data reported in US20090061452A1, “Polymorphisms in the human genes for OCT 1 and their use in diagnostic and therapeutic applications” (Epidauros Biotechnologie AG, priority 2002, published 2009).
Residue numbers refer to the chain shown, from its start. “Also recorded” adds a separate entry of the source.

Legend:
OCT1 mutant Arg61Cys = target: T1, OCT1 mutant Arg61Cys (Homo sapiens, UniProt O15245, R61C); assay: Cyanine863-inhibitable uptake in Xenopus oocytes expressing OCT1 mutant Arg61Cys; type: cell-based; conditions: 0.1 μM [3H]MPP, 30 min
T1 construct: expressed in transfected cells; host or cells: Xenopus laevis oocytes injected with cRNA transcribed from the pOG1 vector
T1 sequence (O15245 1-554 R61C): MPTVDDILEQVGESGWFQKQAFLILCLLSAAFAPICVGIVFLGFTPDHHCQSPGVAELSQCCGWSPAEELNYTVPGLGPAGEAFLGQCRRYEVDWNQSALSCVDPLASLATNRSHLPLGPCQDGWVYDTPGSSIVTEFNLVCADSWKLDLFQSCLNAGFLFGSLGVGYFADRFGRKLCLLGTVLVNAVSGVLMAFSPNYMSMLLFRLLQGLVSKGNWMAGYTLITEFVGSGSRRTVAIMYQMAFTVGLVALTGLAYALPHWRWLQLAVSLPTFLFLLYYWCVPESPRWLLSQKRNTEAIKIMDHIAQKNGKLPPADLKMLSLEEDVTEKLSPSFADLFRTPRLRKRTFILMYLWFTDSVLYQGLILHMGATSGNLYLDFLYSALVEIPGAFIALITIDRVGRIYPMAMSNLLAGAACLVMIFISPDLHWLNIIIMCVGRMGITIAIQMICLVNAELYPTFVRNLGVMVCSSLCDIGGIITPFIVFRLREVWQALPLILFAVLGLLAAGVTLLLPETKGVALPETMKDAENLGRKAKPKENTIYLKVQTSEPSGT

OCT1 mutant Phe160Leu = target: T2, OCT1 mutant Phe160Leu (Homo sapiens, UniProt O15245); assay: Cyanine863-inhibitable uptake in Xenopus oocytes expressing OCT1 mutant Phe160Leu; type: cell-based
T2 construct: expressed in transfected cells; host or cells: Xenopus laevis oocytes injected with cRNA transcribed from the pOG1 vector
T2 sequence (O15245 1-554): T1 sequence (O15245 1-554 R61C) with C61R

OCT1 mutant Met420del = target: T3, OCT1 mutant Met420del (Homo sapiens, UniProt O15245, DEL420-420); assay: Cyanine863-inhibitable uptake in Xenopus oocytes expressing OCT1 mutant Met420del; type: cell-based
T3 construct: expressed in transfected cells; host or cells: Xenopus laevis oocytes injected with cRNA transcribed from the pOG1 vector
T3 sequence (O15245 with tags, fused parts or gaps DEL420-420): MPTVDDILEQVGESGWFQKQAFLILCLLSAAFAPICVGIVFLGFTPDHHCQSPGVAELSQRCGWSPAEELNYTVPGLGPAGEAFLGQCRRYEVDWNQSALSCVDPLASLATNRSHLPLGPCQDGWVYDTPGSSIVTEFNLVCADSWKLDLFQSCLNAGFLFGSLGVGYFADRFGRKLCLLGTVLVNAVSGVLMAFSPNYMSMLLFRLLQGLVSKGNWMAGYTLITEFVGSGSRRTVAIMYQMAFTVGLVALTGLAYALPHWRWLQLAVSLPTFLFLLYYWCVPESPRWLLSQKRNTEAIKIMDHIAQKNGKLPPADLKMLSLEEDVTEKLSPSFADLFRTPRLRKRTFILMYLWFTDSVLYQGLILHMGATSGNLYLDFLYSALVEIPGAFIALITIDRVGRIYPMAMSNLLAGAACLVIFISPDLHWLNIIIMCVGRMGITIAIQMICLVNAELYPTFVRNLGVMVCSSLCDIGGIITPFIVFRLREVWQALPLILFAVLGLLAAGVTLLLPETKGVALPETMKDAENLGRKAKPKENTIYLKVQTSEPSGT

OCT1 mutant Cys88Arg = target: T4, OCT1 mutant Cys88Arg (Homo sapiens, UniProt O15245, C88R); assay: Cyanine863-inhibitable uptake in Xenopus oocytes expressing OCT1 mutant Cys88Arg
T4 sequence (O15245 1-554 C88R): T1 sequence (O15245 1-554 R61C) with C61R, C88R
Procedure: (§1) OCT1 wt and OCT1 mutants were expressed in Xenopus oocytes and analyzed side-by-side. Cyanine863-inhibitable uptake of radioactively labeled organic cations was measured over 30 min. a) Uptake of 0.1 μM [^3H]MPP by different mutants in comparison to OCT1. […] In different batches of oocytes, the cyanine-863-inhibited uptake of 0.1 μM [^3H]MPP expressed by OCT1 wt varied between 0.9 and 1.8 μmol×oocyte^−1×30 min^−1. […] MPP uptake was measured at 9 different MPP concentrations and K0.5 values were determined by fitting the Hill equation to the data. […] Mean values±SD of three experiments are presented. *P<0.05, **P<0.01, ***P<0.001.
(§2) After defolliculation, the oocytes were injected with 10 ng/oocycte of the respective cRNAs. […] Oocytes were incubated for 30 min with the indicated substrate concentrations in the absence or presence of 100 μM of the inhibitor cyanine863. The mutants were compared with the OCT1 wt in side-by-side experiments using oocytes from the same batch (Arndt, Am J. Physiol. Renal Physiol. 281 (2001), F454-468). Each data point corresponded to 8-10 oocytes. K0.5 values were estimated by fitting the Hill equation to the data. Mean values±SD are presented. Significance of differences was tested by unpaired Student t-tests.

OCT1 mutant Gly401Ser = target: T5, OCT1 mutant Gly401Ser (Homo sapiens, UniProt O15245, G401S); assay: Cyanine863-inhibitable uptake in Xenopus oocytes expressing OCT1 mutant Gly401Ser
T5 sequence (O15245 1-554 G401S): T1 sequence (O15245 1-554 R61C) with C61R, G401S
Procedure: as §1, §2

[1] = Hill equation fit, 9 MPP concentrations

C[n+]1ccc(-c2ccccc2)cc1 [MPP, 1-methyl-4-phenylpyridinium]
uptake reduced by (compared to OCT1 wt) (OCT1 mutant Arg61Cys): 70% | uptake compared to OCT1 wt (OCT1 mutant Phe160Leu; 0.1 μM [3H]MPP, 30 min): not significantly different from OCT1 wt | half maximal concentration for substrate activation (K0.5) compared to wild-type (OCT1 mutant Phe160Leu; [1]): similar; also recorded: identical to wild-type | maximal expressed transport rates compared to wild-type (OCT1 mutant Phe160Leu; data not shown): identical to wild-type | reduced Vmax value compared to OCT1 wt (OCT1 mutant Phe160Leu; n=3): 32±16% | uptake compared to OCT1 wt (OCT1 mutant Met420del; 0.1 μM [3H]MPP, 30 min): not significantly different from OCT1 wt | half maximal concentration for substrate activation (K0.5) compared to wild-type (OCT1 mutant Met420del; [1]): identical to wild-type | maximal expressed transport rates compared to wild-type (OCT1 mutant Met420del; data not shown): identical to wild-type | uptake reduced by (compared to OCT1 wt) (OCT1 mutant Cys88Arg; 0.1 μM [3H]MPP, 30 min): more than 98% | uptake reduced by (compared to OCT1 wt) (OCT1 mutant Gly401Ser; 0.1 μM [3H]MPP, 30 min): more than 98%

NCCc1c[nH]c2ccc(O)cc12 [serotonin]
uptake compared to wt, relative to reduction of MPP uptake (OCT1 mutant Cys88Arg; 1 μM [3H]serotonin): significantly less reduced | uptake compared to wt, relative to reduction of MPP uptake (OCT1 mutant Gly401Ser; 1 μM [3H]serotonin): significantly less reduced
